Source: patent US7205261B2, “Use of certain N-acylethanolamines to achieve ethylene- and cytokinin-like effects in plants and fungi” (Nutra-Park, Inc., priority 2002, dated 2007)
Like-named read-outs stand apart in the source and are kept apart here.

How the values were obtained:
[1] = system: maize roots; assay: Corn root bioassay (ethylene production by maize roots); format: in vivo, Zea mays L.; details: for activity at 20 µg/mL: Zea mays, read-out: Ethylene, % of control; for activity at 20 µg/mL / Ethylene: 20 mg/l
Procedure: Corn root bioassay: It is well established that roots of Zea mays produce ethylene when exposed to a variety of stresses (for review, see Morgan, PW and Drew, MC, Physiologia Plantarum 100: 620–630, 1997). Mechanical impedance and hypoxia both induce ethylene formation and usually as early as 1 hour after exposure. In response to ethylene treatment, maize roots show decreased expansion and elongation, a high incidence of cell death and the formation of aerenchyma tissue—particularly evident when roots are exposed to hypoxic conditions (Drew, MC et al., Trends in Plant Science 5: 123–127, 2000, Morgan and Drew 1997).
Seeds of Zea mays L. were sown in flats of Perlite, covered with a layer of vermiculite, and irrigated daily with water and/or 1/10 Hoagland solution. Seedlings were cultivated under continuous illumination at 22–25° C. and used when 7 d old. Seedlings were removed from the Perlite and washed under running tap water. Seedlings were allowed to acclimate in water and/or 1/10 Hoagland solution for several hours before being transferred to Falcon tubes containing the test compounds (all 20 mg/l) prepared in 1/10 Hoagland solution. […] Roots were then transferred to gas-tight tubes each containing 200 μl of water. The tubes were sealed and incubated at 26° C. for 1–2 h in darkness before gas samples were drawn from the incubation tubes using a 1 ml syringe and assayed by gas chromatography (Romera, FJ et al. (1999) Annals of Botany 83, 51–55).

[2] = system: Raphanus sativus L. cv. Cherry Belle cotyledons; assay: Radish cotyledon bioassay (expansion growth and chlorophyll accumulation); format: in vivo; details: for Change in fresh weight: continuous illumination, 25° C., ten cotyledons; for activity at 20 µg/mL: Raphanus sativus, read-out: Change in fresh weight, % of control; for ethylene-like activities (summary of the examples) / cytokinin-like activities (summary of the examples): summary statement in the description
Text: Radish cotyledon bioassay: This bioassay using Raphanus sativus L. cv. Cherry Belle cotyledons was developed by Letham, DS (Physiologia Plantarum 25, 391–396, 1971, incorporated by reference in its entirety) to evaluate the efficacy of cytokinin on cell enlargement. Success using this assay is not restricted to radish. […] In addition to their effect on cell division, cytokinin plays a major role in driving cell enlargement. Compounds in this class of phytohormone and with cytokinin activity also help maintain photosynthetic activity and productivity and abolish proteolytic activity. In cotyledon leaf systems, a requirement for cytokinin is critical and removal of the roots (i.e. the presumed source of cytokinin) renders the cotyledon leaves unable to expand. Exposure to cytokinin (0.02–22 μg/ml) results in a dramatic increase in fresh weight of cotyledons within 72 hours. This effect is not observed with either gibberellin or auxin and is usually delayed or inhibited by abscisic acid and the ethylene precursor, 1-aminocyclopropane-1-carboxylic acid (ACC). […] Thus, the mode of action of cytokinin in this system appears to be similar to that of indole-3-acetic acid (IAA) in auxin-induced stem elongation, a process that depends on an increase in the mechanical extensibility of the cell wall. However, cytokinin antagonizes IAA-mediated cell elongation and appears to do so by promoting ethylene production. Furthermore, cytokinin-induced cell expansion is not usually accompanied by proton (H^+) extrusion and no change in plasma membrane ATPase activity is evident.
Seeds of Raphanus sativus L. cv. Cherry-Belle were germinated in darkness at 24° C. for 36 h in Petri dishes containing filter paper wetted with distilled water. The smaller of the two cotyledons was excised, the fresh weight determined, and 10 cotyledons placed adaxial side down on filter paper in Petri dishes containing 10 ml of KPO4 buffer (2 mM, pH 6.0) and the compounds to be tested at 20 mg/l. […] Chlorophyll content was determined after extraction of tissue into 80% ethanol (containing butylated hydroxytoluene (BHT) 10 mg/l) using the equations Chl a=(13.95A663)−(6.88A647) and Chl b=(24.96A652)−(7.32A663) as described by Lichtenthaler, HK, Methods in Enzymology 148: 350–382, 1987, incorporated by reference in its entirety. FIG. 6 illustrates the difference in cotyledon size in response to the cytokinin kinetin.

[3] = Table 3, 48 h incubation, 20 mg/l

SMILES | Chlorophyll (mg/g FW) a + b ([2]; Experiment 2, 20 mg/l, 48 h) | Chlorophyll (μg/cotyledon) a + b ([2]; Experiment 2, 20 mg/l, 48 h) | Chlorophyll a/b ([2]; Experiment 2, 20 mg/l, 48 h) | Change in fresh weight ([2]; Experiment 2, 20 mg/l, 48 h) | activity at 20 µg/mL ([2]; Experiment 2, 20 mg/l, 48 h) | cytokinin-like activities (summary of the examples) [2] | further results
CCCCCCCC(=O)NCCO [NAE-8:0, N-Octanoyl-2-aminoethanol] | 1.75 mg/g FW | 22.27 μg/cotyledon | 1.8 | 8.29 ± 0.72 mg | 102% | – | activity at 20 µg/mL ([1]; experiment 1, 72 h): 116%; activity at 20 µg/mL ([1]; experiment 2, 36 h): 193%; Ethylene ([1]; experiment 1, 72 h illumination, roots incubated 2 h in gas tight tubes): 685.2 ± 211.6 nL/g FW/h; Ethylene ([1]; experiment 2, 36 h illumination, roots incubated 2 h in darkness at 24° C.): 55.46 ± 31.59 pmol/g FW/h; relative efficacy on ethylene formation (in words) ([1]; second experiment (Table 5)): strongest effect; Chlorophyll a/b ([2]; Experiment 1, 20 mg/l, 72 h): 1.5; Change in fresh weight ([2]; Experiment 1, 20 mg/l, 72 h): 13.32 ± 6.40 mg; activity at 20 µg/mL ([2]; Experiment 1, 20 mg/l, 72 h): 95%; chlorophyll accumulation (in words) ([2]; Table 2, 72 h incubation, 20 mg/l): greater effect than other NAEs; ethylene-like activities (summary of the examples) [2]: ethylene-like activities
CCCCCCCCCCCC(=O)NCCO [NAE-12:0, N-Dodecanoyl-2-aminoethanol] | 1.79 mg/g FW | 23.16 μg/cotyledon | 2.0 | 8.53 ± 1.59 mg | – | cytokinin-like activities | activity at 20 µg/mL ([2]; 48 h): 105%
CCCCCCCCCCCCCCCC(=O)NCCO [NAE-16:0, N-Hexadecanoyl-2-aminoethanol] | 1.44 mg/g FW | 24.18 μg/cotyledon | 1.7 | 12.42 ± 2.26 mg | 153% | cytokinin-like activities | chlorophyll content per unit mass (in words) [2, 3]: decreased chlorophyll content per unit mass; chlorophyll per cotyledon (in words) [2, 3]: increased chlorophyll per cotyledon; hormone-like activity with respect to expansion growth (in words) [2, 3]: cytokinin-like activity
CCCCCCCCCCCCCCCCCC(=O)NCCO [NAE-18:0, N-Octadecanoyl-2-aminoethanol] | 1.85 mg/g FW | 22.42 μg/cotyledon | 1.9 | 7.75 ± 1.01 mg | 96% | – | –
CCCCCCCC/C=C\CCCCCCCC(=O)NCCO [NAE-18:1(Δ9), N-Oleoyl-2-aminoethanol] | 1.99 mg/g FW | 20.29 μg/cotyledon | 2.0 | 5.78 ± 0.96 mg | 71% | cytokinin-like activities | increase of ethylene production (in words) ([1]; other experiments using a different treatment time): effective; cotyledon expansion (in words) [2, 3]: slowed cotyledon expansion; hormone-like activity with respect to expansion growth (in words) [2, 3]: ethylene-like activity; ethylene-like activities (summary of the examples) [2]: ethylene-like activities
O=C(NCCO)c1ccccc1 [NAE-Bz, N-Benzoyl-2-aminoethanol] | 1.77 mg/g FW | 20.87 μg/cotyledon | 1.8 | 7.36 ± 1.00 mg | 91% | – | –
CCCCC(CC)C(=O)NCCO (stereo not shown) [NAE-EH, N-(2-Ethylhexanoyl)-2-aminoethanol] | 1.63 mg/g FW | 19.73 μg/cotyledon | 1.8 | 7.69 ± 1.16 mg | 95% | – | –
